Columns and labels:
K. pneumoniae = conditions: sole activity, Table 6C
[1] = test system: A. baumanii strains with elevated MICs to Polymyxin B; assay: MIC against strains with elevated MICs to Polymyxin B; format: cell-based, Acinetobacter baumannii; conditions: Table 6D; for MIC A. baumannii 053: strain 053, elevated MIC to Polymyxin B; for MIC A. baumannii 056: strain 056, elevated MIC to Polymyxin B; for MIC A. baumannii 068: strain 068, elevated MIC to Polymyxin B; for MIC A. baumannii 070: strain 070, elevated MIC to Polymyxin B
Procedure: (§1) The inoculum was prepared by making a direct suspension of isolated colonies (selected from an 18-24 hour Mueller-Hinton agar plate) adjusted to the 0.5 McFarland standard. […] The assays were performed in duplicate. […] In cases where the duplicate values varied by less than 2-fold, the lower of the two values is reported. If a variation of greater than 2-fold was observed, the assay was considered non-valid. Several of the compounds were subjected to multiple tests, and where this is the case, the MIC reflects the modal value obtained.
(§2) The Further Synthesis Examples were tested against a range of Gram negative bacteria, and tested for HK-2 cell toxicity. All the worked examples, including the Synthesis and Further Synthesis Examples, were also tested against a range of Gram negative bacteria that are resistant to Polymyxin B (i.e. those strains where Polymyxin B has an elevated MIC value).

E. coli = conditions: sole activity, Table 6C
[2] = test system: P. aeruginosa strains with elevated MICs to Polymyxin B; assay: MIC against strains with elevated MICs to Polymyxin B; format: cell-based, Pseudomonas aeruginosa; conditions: Table 6D; for MIC P. aeruginosa 065: strain 065, elevated MIC to Polymyxin B; for MIC P. aeruginosa 067: strain 067, elevated MIC to Polymyxin B; for MIC P. aeruginosa 066: strain 066, elevated MIC to Polymyxin B
Procedure: as §1, §2

A. baumannii = conditions: sole activity, Table 6C
P. aeruginosa = conditions: sole activity, Table 6C
[3] = test system: E. coli strains with elevated MICs to Polymyxin B; assay: MIC against strains with elevated MICs to Polymyxin B; format: cell-based, Escherichia coli; conditions: Table 6D; for MIC E. coli 058: strain 058, elevated MIC to Polymyxin B; for MIC E. coli 059: strain 059, elevated MIC to Polymyxin B; for MIC E. coli 060: strain 060, elevated MIC to Polymyxin B; for MIC E. coli 061: strain 061, elevated MIC to Polymyxin B
Procedure: as §1, §2

[4] = test system: K. pneumoniae strains with elevated MICs to Polymyxin B; assay: as above; format: cell-based, Klebsiella pneumoniae; conditions: Table 6D; for MIC K. pneumoniae 062: strain 062, elevated MIC to Polymyxin B; for MIC K. pneumoniae 063: strain 063, elevated MIC to Polymyxin B; for MIC K. pneumoniae 064: strain 064, elevated MIC to Polymyxin B; for MIC K. pneumoniae 655: strain 655, elevated MIC to Polymyxin B
Procedure: as §1, §2

Substance	MIC, K. pneumoniae ATCC 4352 (K. pneumoniae)	MIC A. baumannii 053 [1]	MIC A. baumannii 056 [1]	MIC A. baumannii 068 [1]	MIC A. baumannii 070 [1]	MIC, E. coli ATCC 25922 (E. coli)	MIC P. aeruginosa 065 [2]	MIC P. aeruginosa 067 [2]	MIC, A. baumannii ATCC BAA-747 (A. baumannii)	MIC, A. baumannii NCTC 13424 (A. baumannii)	MIC, P. aeruginosa ATCC 27853 (P. aeruginosa)	MIC, P. aeruginosa CCUG 59347 (P. aeruginosa)	MIC E. coli 058 [3]	MIC E. coli 059 [3]	MIC E. coli 060 [3]	MIC E. coli 061 [3]	MIC K. pneumoniae 062 [4]	MIC K. pneumoniae 063 [4]	MIC K. pneumoniae 064 [4]	MIC K. pneumoniae 655 [4]	further results
(trans-5-(isobutyl- piperidine)-3- carbonyl L-Thr- D-Ser-polymyxin B heptapeptide [Example D82]	0.06 micrograms/mL	16 micrograms/mL	8 micrograms/mL	32 micrograms/mL	32 micrograms/mL	0.125 micrograms/mL	0.5 micrograms/mL	64 micrograms/mL	0.06 micrograms/mL	0.125 micrograms/mL	2 micrograms/mL	4 micrograms/mL	4 micrograms/mL	4 micrograms/mL	4 micrograms/mL	8 micrograms/mL	32 micrograms/mL	16 micrograms/mL	1 micrograms/mL	8 micrograms/mL	–
trans-5- cyclohexyl- piperidine-3- carbonyl L-Thr-L- Dap-polymyxin E heptapeptide [Example D86]	0.03 micrograms/mL	16 micrograms/mL	50.25 micrograms/mL	1 micrograms/mL	2 micrograms/mL	0.125 micrograms/mL	0.5 micrograms/mL	32 micrograms/mL	0.03 micrograms/mL	0.06 micrograms/mL	0.25 micrograms/mL	0.5 micrograms/mL	0.5 micrograms/mL	1 micrograms/mL	1 micrograms/mL	4 micrograms/mL	1 micrograms/mL	8 micrograms/mL	1 micrograms/mL	4 micrograms/mL	MIC P. aeruginosa 066 [2]: 0.25 micrograms/mL
3-aminomethyl- undecanoyl L- Thr-L-Dap- polymyxin B heptapeptide [Example D92]	0.25 micrograms/mL	8 micrograms/mL	4 micrograms/mL	1 micrograms/mL	1 micrograms/mL	0.5 micrograms/mL	0.5 micrograms/mL	8 micrograms/mL	0.5 micrograms/mL	0.25 micrograms/mL	0.25 micrograms/mL	0.5 micrograms/mL	0.5 micrograms/mL	0.5 micrograms/mL	1 micrograms/mL	4 micrograms/mL	2 micrograms/mL	8 micrograms/mL	2 micrograms/mL	4 micrograms/mL	MIC P. aeruginosa 066 [2]: 1 micrograms/mL
(trans-5- (cyclohexyl- piperidine)-3- carbonyl L-Thr-L- Dap-polymyxin B heptapeptide [Example D78]	0.06 micrograms/mL	8 micrograms/mL	50.25 micrograms/mL	1 micrograms/mL	1 micrograms/mL	0.125 micrograms/mL	1 micrograms/mL	32 micrograms/mL	0.06 micrograms/mL	0.06 micrograms/mL	0.5 micrograms/mL	0.5 micrograms/mL	0.5 micrograms/mL	0.5 micrograms/mL	1 micrograms/mL	1 micrograms/mL	–	4 micrograms/mL	1 micrograms/mL	4 micrograms/mL	MIC, K. pneumoniae ATCC BAA-2146 (K. pneumoniae): 0.125 micrograms/mL; MIC, E. coli NCTC 13441 (E. coli): 0.125 micrograms/mL; MIC P. aeruginosa 066 [2]: 0.5 micrograms/mL
5- isobutoxypiperidine- 3-carbonyl L- Thr-L-Dap- polymyxin B heptapeptide [Example D70]	0.06 micrograms/mL	>256 micrograms/mL	16 micrograms/mL	8 micrograms/mL	32 micrograms/mL	0.125 micrograms/mL	4 micrograms/mL	>256 micrograms/mL	0.06 micrograms/mL	0.125 micrograms/mL	0.25 micrograms/mL	0.5 micrograms/mL	4 micrograms/mL	8 micrograms/mL	4 micrograms/mL	16 micrograms/mL	64 micrograms/mL	64 micrograms/mL	6 micrograms/mL	32 micrograms/mL	MIC, E. coli NCTC 13441 (E. coli): 0.125 micrograms/mL; MIC P. aeruginosa 066 [2]: 16 micrograms/mL
(S)-4-amino-2- ((2- trifluoromethyben- zyl)amino)butanoyl L-Thr-L-Dap- polymyxin B heptapeptide [Example D88]	0.06 micrograms/mL	>64 micrograms/mL	32 micrograms/mL	8 micrograms/mL	16 micrograms/mL	0.06 micrograms/mL	0.25 micrograms/mL	>64 micrograms/mL	0.06 micrograms/mL	0.06 micrograms/mL	0.125 micrograms/mL	0.5 micrograms/mL	2 micrograms/mL	8 micrograms/mL	4 micrograms/mL	16 micrograms/mL	32 micrograms/mL	16 micrograms/mL	1 micrograms/mL	16 micrograms/mL	MIC P. aeruginosa 066 [2]: 1 micrograms/mL
cis-5- (benzylcarbamoyl) piperidine-3- carbonyl Polymyxin B nonapeptide [Example D66]	0.125 micrograms/mL	>256 micrograms/mL	128 micrograms/mL	32 micrograms/mL	–	0.125 micrograms/mL	16 micrograms/mL	>256 micrograms/mL	0.25 micrograms/mL	0.25 micrograms/mL	0.5 micrograms/mL	0.5 micrograms/mL	8 micrograms/mL	16 micrograms/mL	8 micrograms/mL	32 micrograms/mL	128 micrograms/mL	64 micrograms/mL	32 micrograms/mL	–	MIC, K. pneumoniae ATCC BAA-2146 (K. pneumoniae): 0.06 micrograms/mL; MIC, E. coli NCTC 13441 (E. coli): 0.125 micrograms/mL; MIC P. aeruginosa 066 [2]: 32 micrograms/mL
